{"source": "the NIST ThermoML archive (doi:10.1016/j.jct.2004.09.002)", "key": {"[1]": {"assay": "Boiling temperature at pressure P", "settings": "101.33 kPa; Liquid; Fischer boiling point apparatus"}, "[2]": {"assay": "refractive index (Na D-line) (dimensionless)", "settings": "293.15 K; 101.33 kPa; Liquid; Standard Abbe refractometry"}, "[3]": {"settings": "293.15 K; 101.33 kPa; Liquid; Vibrating tube method"}}, "note": "Numbers after ± are expanded uncertainties.", "data": [{"molecule": "O", "note": "[water]", "values": [{"measurement": "Boiling temperature at pressure P", "setting": "[1]", "value": "100.1 ± 0.2", "unit": "°C"}, {"measurement": "refractive index", "setting": "[2]", "value": "1.3324 ± 0.0012"}]}, {"molecule": "CCCC(=O)O", "note": "[butanoic acid]", "values": [{"measurement": "mass density", "setting": "[3]", "value": "957.6 ± 0.5", "unit": "kg/m3"}, {"measurement": "refractive index", "setting": "[2]", "value": "1.3982 ± 0.0012"}]}, {"molecule": "CC(=O)OC1CCCCC1", "note": "[cyclohexyl ethanoate]", "values": [{"measurement": "Boiling temperature at pressure P", "setting": "[1]", "value": "177.30 ± 0.2", "unit": "°C"}, {"measurement": "mass density", "setting": "[3]", "value": "970.3 ± 1", "unit": "kg/m3"}, {"measurement": "refractive index", "setting": "[2]", "value": "1.4434 ± 0.0013"}]}]}
